From patent US7691858B2, “Kinase inhibitors and methods of use thereof” (TargeGen, Inc., priority 2006, dated 2010)

Assays:
[1] = test system: four isoforms of PI3K; assay: PI3K isoform profiles; type: biochemical
Protocol: Identification of PI3K isoform-selective inhibitors.
Kinase assays: For PI3K assays, 40 μL reaction buffer (20 mM Tris, 4 mM MgCl2, 10 mM NaCl, pH 7.4) containing 50 μM D-myo-phosphatidylinositol 4,5-bisphosphate substrate (Echelon Biosciences, Salt Lake City, Utah) and the desired PI3K isoform (Upstate USA, Charlottesville, Va.) were aliquoted to 96 well plates; kinase concentrations were 250-500 ng/well, such that linear kinetics were achieved over 90 min. The compound to be tested was then added as 2.5 μL of a DMSO stock to final concentration range of 100 μM. to 1 nM. Reactions were initiated by addition of 10 μL of ATP to a final concentration of 3 μM, and after 90 min 50 μL of Kinase-Glo reagent (Promega, Madison, Wis.) added to quantify residual ATP levels; luminosity was measured using an Ultra 384 instrument (Tecan, Durham, N.C.). Control reactions omitting either test compound or substrate were also performed. IC50 values were derived from experimental data by non-linear curve fitting (Prism Version 4; GraphPad Software, San Diego, Calif.).

[2] = target: T1, PI3Kγ (p120γ) (Homo sapiens, UniProt P48736); assay: PI3K luminescence kinase assay (Kinase-Glo), IC50; type: biochemical; conditions: Table 1, mean of triplicate values
T1 construct: purchased Upstate Cell Signaling Solutions / Upstate USA
Protocol: The IC50 value for compounds were determined using a luminescence-based kinase assay with recombinant phosphatidylinositol 3-kinase-p120γ (PI3K) obtained from Upstate Cell Signaling Solutions. […] The reaction was initiated by the addition of 10 μL of ATP to a final assay concentration of 3 μM. After the reaction was to proceed for 90 min, 50 μL of Kinase-Glo reagent (Promega) was added to terminate the reaction. This solution was then allowed to proceed for an additional 10 min to maximize the luminescence reaction. […] Two control reactions were also ran: one containing no compound and the second containing neither compound nor the phosphatidylinositol 4,5-bisphosphate substrate. Data from four wells were then averaged and used to determine IC50 values for the test compounds. IC50 values were derived from experimental data using the non-linear curve fitting capabilities of Prism (Version 4; GraphPad Software).

T1 sequence (P48736 whole entry): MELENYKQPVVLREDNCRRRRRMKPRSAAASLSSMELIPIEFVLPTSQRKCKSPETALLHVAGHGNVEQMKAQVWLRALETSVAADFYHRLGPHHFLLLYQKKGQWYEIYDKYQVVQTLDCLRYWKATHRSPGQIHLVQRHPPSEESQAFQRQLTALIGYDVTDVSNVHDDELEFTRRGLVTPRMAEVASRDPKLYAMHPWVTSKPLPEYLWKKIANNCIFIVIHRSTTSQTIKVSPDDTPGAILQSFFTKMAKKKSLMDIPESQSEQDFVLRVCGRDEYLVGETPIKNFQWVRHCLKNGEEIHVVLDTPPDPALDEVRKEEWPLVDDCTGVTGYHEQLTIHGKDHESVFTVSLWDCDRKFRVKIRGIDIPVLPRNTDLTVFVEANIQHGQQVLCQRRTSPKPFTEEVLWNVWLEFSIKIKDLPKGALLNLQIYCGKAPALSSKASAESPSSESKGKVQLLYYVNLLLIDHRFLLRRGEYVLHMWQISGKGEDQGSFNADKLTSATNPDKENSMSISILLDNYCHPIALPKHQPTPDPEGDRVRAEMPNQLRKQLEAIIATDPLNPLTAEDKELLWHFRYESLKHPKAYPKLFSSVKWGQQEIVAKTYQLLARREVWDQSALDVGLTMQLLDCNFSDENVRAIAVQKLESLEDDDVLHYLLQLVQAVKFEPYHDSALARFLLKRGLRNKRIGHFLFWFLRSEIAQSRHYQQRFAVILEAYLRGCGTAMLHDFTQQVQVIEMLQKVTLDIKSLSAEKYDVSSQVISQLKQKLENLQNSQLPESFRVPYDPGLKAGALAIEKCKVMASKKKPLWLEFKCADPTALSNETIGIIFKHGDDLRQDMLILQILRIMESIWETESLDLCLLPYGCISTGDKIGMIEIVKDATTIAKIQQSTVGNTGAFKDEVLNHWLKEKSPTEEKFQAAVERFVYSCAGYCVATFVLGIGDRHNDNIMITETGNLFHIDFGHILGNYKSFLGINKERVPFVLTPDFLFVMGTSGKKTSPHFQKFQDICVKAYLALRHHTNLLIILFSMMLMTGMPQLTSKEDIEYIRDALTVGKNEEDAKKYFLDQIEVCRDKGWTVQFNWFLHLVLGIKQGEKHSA

IC50 [2]: 85 nM
Structure (SMILES): Nc1nc(N)c2nc(-c3cccc4[nH]ccc34)cnc2n1 [Compound III, 6-(1H-Indol-4-yl)pteridine-2,4-diamine]
PI3K isoform selectivity [1]: less selective
